Measured values published in patent US20060205769A1, “Piperidine or 8-aza-bicyclo[3.2.1]oct-3-yl derivatives useful as modulators of chemokine receptor activity” (priority 2003, published 2006).
Structures can show the parent of a compound that is named as a salt.

These compounds were tested against T1, recombinant human CCR5 receptor (Homo sapiens, UniProt P51681) (assay: in vitro radioligand binding assay: inhibition of binding of iodinated MIP-1α to membranes of CHO cells expressing CCR5 (scintillation proximity)). Details: displacement of 0.1 nM iodinated MIP-1α; negative log (base 10) of IC50; average if tested more than once.
T1 construct: expressed in transfected cells; host or cells: Chinese hamster ovary (CHO) cells; membranes
T1 sequence (P51681 whole entry): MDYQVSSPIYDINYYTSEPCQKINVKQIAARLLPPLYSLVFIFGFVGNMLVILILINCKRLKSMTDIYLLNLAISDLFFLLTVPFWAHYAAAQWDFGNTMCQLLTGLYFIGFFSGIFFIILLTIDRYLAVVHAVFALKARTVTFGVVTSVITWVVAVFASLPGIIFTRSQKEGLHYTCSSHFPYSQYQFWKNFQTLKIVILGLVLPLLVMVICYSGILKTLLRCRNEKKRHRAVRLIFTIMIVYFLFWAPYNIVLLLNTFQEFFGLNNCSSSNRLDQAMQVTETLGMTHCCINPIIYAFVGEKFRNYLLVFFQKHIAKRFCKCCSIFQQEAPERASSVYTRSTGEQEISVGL
Experimental: The ability of compounds to inhibit the binding of MIP-1α was assessed by an in vitro radioligand binding assay. Membranes were prepared from Chinese hamster ovary cells which expressed the recombinant human CCR5 receptor. These membranes were incubated with 0.1 nM iodinated MIP-1α, scintillation proximity beads and various concentrations of the compounds of the invention in 96-well plates. The amount of iodinated MIP-1α bound to the receptor was determined by scintillation counting. Competition curves were obtained for compounds and the concentration of compound which displaced 50% of bound iodinated MIP-1α was calculated (IC50).
In Table IV the results are presented as Pic50 values. A Pic50 value is the negative log (to base 10) of the IC50 result, so an IC50 of 1 μM (that is 1×10^−6M) gives a Pic50 of 6. If a compound was tested more than once then the data below is an average of the probative tests results.

Row | IC50 | Structure (SMILES)
1 | 39.8 nM | CS(=O)(=O)N1CCC([C@@H](CCN2CCC(CCS(=O)(=O)C3CCNCC3)CC2)c2cc(F)cc(F)c2)CC1 [Table I Compound 2]
2 | 3.98 nM | CS(=O)(=O)N1CCC([C@@H](CCN2CCC(CCS(=O)(=O)C3CCN(S(=O)(=O)C(F)(F)F)CC3)CC2)c2cc(F)cc(F)c2)CC1 [Table I Compound 3]
3 | 3.16 nM | CS(=O)(=O)c1ccc([C@@H](CCN2CCC(CCS(=O)(=O)N3CCCCC3)CC2)c2cc(F)cc(F)c2)cc1 [Table III Compound 1, (R)-1-{3-(3,5-difluorophenyl)-3-[4-(methylsulfonyl)phenyl]propyl}-4-[2-(piperidin-1-ylsulfonyl)ethyl]piperidine hydrochloride]
